Laboratory results as given in PubChem BioAssay (NCI).
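Following 48 hours of exposure in 96-well plates, responses at five concentrations were used to interpolate endpoints linearly. GI50 is the concentration that inhibits growth by half. TGI is the concentration that stops growth completely.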

Tests used:
Test in all cases: inhibition of tumour cell growth, NCI panel, 48 h
UACC-62 melanoma = tested on: UACC-62 melanoma
HCT-15 colon = tested on: HCT-15 colon
UO-31 renal = tested on: UO-31 renal
MOLT-4 leukemia = tested on: MOLT-4 leukemia
SNB-19 CNS = tested on: SNB-19 CNS
UACC-257 melanoma = tested on: UACC-257 melanoma
OVCAR-3 ovarian = tested on: OVCAR-3 ovarian
SF-539 CNS = tested on: SF-539 CNS
KM12 colon = tested on: KM12 colon
LOX IMVI melanoma = tested on: LOX IMVI melanoma

Row | SMILES | TGI (UACC-62 melanoma) | TGI (HCT-15 colon) | TGI (UO-31 renal) | TGI (MOLT-4 leukemia) | TGI (SNB-19 CNS) | TGI (UACC-257 melanoma) | TGI (OVCAR-3 ovarian) | TGI (SF-539 CNS) | TGI (KM12 colon) | TGI (LOX IMVI melanoma) | GI50 (MOLT-4 leukemia) | GI50 (SF-539 CNS) | GI50 (KM12 colon)
1 | C=C1C(=O)OC2/C=C(\CO)C3OC3C3OC3(C)CC(OC(=O)/C(=C/C)COC(C)=O)C12 (stereo unspecified) | 6.2 µM | 6.47 µM | 23.7 µM | > 100 µM | 28.6 µM | 12.6 µM | 11.4 µM | 7.38 µM | 19 µM | 3.24 µM | – | – | –
2 | COc1ccc(C(=O)c2[nH]c(Nc3cc(C)ccn3)c(C(=S)Nc3ccccc3)c2N)cc1 | 26.7 µM | 55.9 µM | 57.4 µM | > 100 µM | 56 µM | 32.7 µM | > 100 µM | 35.8 µM | 39.2 µM | 42.2 µM | – | – | –
3 | Cc1c2cnccc2c(C)c2c1c1ccccc1n2CCCCCCCl | > 50 µM | > 50 µM | > 50 µM | > 50 µM | > 50 µM | > 50 µM | > 50 µM | > 50 µM | > 50 µM | > 50 µM | – | – | –
4 | Nc1nc2cc(COc3ccc(C(=O)O)cc3)ccc2nc1-c1ccccc1 | > 10 µM | > 10 µM | > 10 µM | > 10 µM | > 10 µM | > 10 µM | > 10 µM | > 10 µM | > 10 µM | > 10 µM | – | – | –
5 | Cc1ccc(C(=O)c2[nH]c(NCc3ccccc3)c(C(=S)Nc3ccccc3)c2N)cc1 | 25.2 µM | 4.33 µM | 18.2 µM | 6.38 µM | 29.1 µM | 18.4 µM | 25.2 µM | 5.63 µM | 6.34 µM | 3.97 µM | – | – | –
6 | Nc1nc(N)c2ncn(Cc3ccccc3CO)c2n1 | > 100 µM | > 100 µM | > 100 µM | > 100 µM | > 100 µM | > 100 µM | > 100 µM | > 100 µM | > 100 µM | > 100 µM | – | – | –
7 | O=C1Sc2sc(=S)sc2SC1c1ccccc1 (stereo unspecified) | 57.2 µM | 36.8 µM | > 86.7 µM | > 100 µM | > 100 µM | > 100 µM | > 31.6 µM | > 100 µM | > 100 µM | > 82.6 µM | – | – | –
8 | COc1cnc2oc3ccc(O)cc3c2c1-c1ccccc1 | – | > 100 µM | > 100 µM | > 100 µM | – | > 100 µM | > 100 µM | > 100 µM | > 100 µM | > 100 µM | – | – | –
9 | O=C(c1ccsc1)c1nccc2c1cnc1ccccc12 | > 100 µM | > 100 µM | > 100 µM | 24.3 µM | > 100 µM | > 100 µM | > 100 µM | > 100 µM | > 100 µM | > 100 µM | – | – | –
10 | COc1ccc(C)cc1NC(=S)N/N=C/c1ccco1 | > 100 µM | > 100 µM | > 100 µM | > 100 µM | > 100 µM | > 100 µM | > 100 µM | > 100 µM | > 100 µM | > 100 µM | – | – | –
11 | O=c1c2cc([N+](=O)[O-])ccc2[nH]n1Cc1ccccc1Cl | > 100 µM | > 100 µM | > 100 µM | > 100 µM | > 100 µM | > 100 µM | > 100 µM | > 100 µM | > 100 µM | > 100 µM | – | – | –
12 | O=C(N/N=C/c1cc(Cl)cc(Cl)c1[O-])c1ccccc1O.O=C(N/N=C/c1cc(Cl)cc(Cl)c1[O-])c1ccccc1O.[Mn+2] | 0.804 µM | 14.1 µM | 11.1 µM | 14.8 µM | 16.1 µM | 11.9 µM | 1.02 µM | 4.51 µM | 15.9 µM | 14.1 µM | 0.289 µM | 0.459 µM | 0.448 µM
